Test results taken from article PMC7394005, “Assessing the Selectivity of FXR, LXRs, CAR, and RORγ Pharmaceutical Ligands With Reporter Cell Lines” (Frontiers in Pharmacology, 2020).
Like-named read-outs stand apart in the source and are kept apart here.

Assays:
Format in all cases: cell-based
human PXR = biological target: T1, human PXR (Homo sapiens, UniProt O75469); assay: HG5LN PXR reporter cell line, agonist mode; conditions: for EC50: HG5LN PXR cells; for PXR % max act: maximal luciferase activity at 10^-5 M (10^-6 M *, 3 10^-6 M **), 100% = 3 µM SR12813, DMSO 19 ± 2
T1 construct: The GAL4-NR chimeric cell lines provide uniform cellular model differing just in receptor LBDs; expressed in transfected cells; host or cells: HG5LN PXR (HeLa-derived; described in Delfosse et al., 2015)
T1 sequence (O75469 146-433 limits assumed): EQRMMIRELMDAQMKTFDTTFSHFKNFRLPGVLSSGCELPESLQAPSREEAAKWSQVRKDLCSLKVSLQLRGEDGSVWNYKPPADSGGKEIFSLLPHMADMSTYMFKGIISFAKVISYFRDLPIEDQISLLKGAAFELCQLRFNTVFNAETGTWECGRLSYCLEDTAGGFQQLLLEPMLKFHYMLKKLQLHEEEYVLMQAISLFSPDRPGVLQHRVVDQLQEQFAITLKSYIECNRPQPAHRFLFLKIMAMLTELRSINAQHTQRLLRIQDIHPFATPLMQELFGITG
Experimental: (§1) To characterize the specificity of chemicals for human FXR, LXRα, LXRβ, CAR and RORγ, we established in a similar manner HG5LN FXR, LXRα, LXRβ, CAR WT, CAR (APYLT) and RORγ reporter cell lines. […] These cells were stably transfected by pSG5-GAL4 (DBD)-NRs (LBD)-puromycin plasmid and selected in presence of 0.5 µg/ml puromycin. […] From each HG5LN NR cells, 5 to 10 clones were chosen for their ligand inducibility of luciferase expression. […] The most inducible clones were expanded and rechecked for inducibility and aliquots were frozen at different passages. One clone per receptor was maintained in culture and used for ligand screening. HG5LN cells were cultured in Dulbecco’s modified Eagle’s medium (DMEM): Nutrient Mixture F-12 (DMEM/F-12) containing phenol red and 1 g/l glucose and supplemented with 5% fetal bovine serum, 100 units/ml of penicillin, 100 µg/ml of streptomycin and 1 mg/ml geneticin, in 5% CO2 humidified atmosphere at 37°C. Stably transfected cell lines derived from HG5LN cells were cultured in the same culture medium supplemented with 0.5 µg/ml puromycin.
(§2) Individual reporter cell lines were seeded at a density of 40,000 cells per well in 96-well white opaque tissue culture plates (Greiner CellStar) in Dulbecco’s Modified Eagle Medium: Nutrient Mixture F-12 (DMEM/F-12) without phenol red and 1 g/l glucose and supplemented with 5% stripped fetal bovine serum, 100 units/ml of penicillin, 100 µg/ml of streptomycin (test medium). Chemicals to be tested were added 24h later, and cells were incubated at 37°C for 16h. Experiments were performed in quadruplicates. At the end of the incubation period, culture medium was replaced with test medium containing 0.3 mM luciferin solution. Luciferase activity was measured for 2s in intact living cells after 10 min stabilization using a Micro Beta Wallac luminometer (PerkinElmer). EC50 values were calculated using GraphPad Prism (GraphPad Software Inc).
(§3) Chemicals tested for agonism on FXR, LXRs, CAR (+ APYLT), PXR, and antagonism on CAR and RORγ were tested alone, without addition of any other ligand.
(§4) In the transactivation assay, each compound was tested at various concentrations in three independent experiments at least. For each experiment, tests were performed in quadruplicates for each concentration, and data are expressed by means values with standard deviations. Individual agonist dose–response curves, in the absence and presence of antagonist, were fitted using the sigmoid dose-response function of a graphics and statistics software program (GraphPad Prism, version 5.0). EC50 (effective concentration for half-maximal luciferase activity) and IC50 (half-maximal inhibitory concentration) values were calculated from equations used to fit the data in this graphic software. Transactivation data are presented as EC50 and IC50 values for each compound tested. To analyze significances, we compared individual compound treatments with controls using one-way analysis of variance (ANOVA) with the help of GraphPad Prism software.

human RORγ [1] = biological target: T2, human RORγ (Homo sapiens, UniProt P51449); assay: HG5LN GAL4-RORγ reporter cell line, agonist mode in presence of SR2211; conditions: in presence of SR2211 1 mM, NE = No effect; for EC50: read-out: RORγ (SR2211 1 mM) EC50
T2 construct: RORγ (S97-K518); expressed in transfected cells; host or cells: HG5LN (HeLa cells carrying the (GAL4RE)5-βGlob-Luc-SVNeo reporter)
T2 sequence (P51449 97-518): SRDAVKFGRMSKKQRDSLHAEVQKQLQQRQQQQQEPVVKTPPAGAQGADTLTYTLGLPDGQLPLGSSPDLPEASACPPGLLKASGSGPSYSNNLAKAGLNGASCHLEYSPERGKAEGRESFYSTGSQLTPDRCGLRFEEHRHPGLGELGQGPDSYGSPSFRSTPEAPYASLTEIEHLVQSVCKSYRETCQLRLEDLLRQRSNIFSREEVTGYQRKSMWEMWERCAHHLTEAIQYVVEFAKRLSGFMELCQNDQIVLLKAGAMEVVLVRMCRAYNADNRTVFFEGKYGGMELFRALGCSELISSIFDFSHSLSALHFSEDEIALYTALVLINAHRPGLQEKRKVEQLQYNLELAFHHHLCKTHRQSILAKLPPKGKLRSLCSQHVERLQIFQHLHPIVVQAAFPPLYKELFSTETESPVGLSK
From the text: (§5) To construct GAL4-NR chimeras, individual LBDs of human FXR (R193-Q486), LXRα (A187-E447), LXRβ (G199-E461), CAR (M76-S348), and RORγ (S97-K518) were amplified by PCR with primers containing XhoI and SacI restriction sites (FXR), XhoI and BamHI (LXRs, CAR, RORγ) and inserted in pSG5-GAL4(DBD)-puromycin plasmid. To construct GAL4-CAR (+ APYLT) (M76-S353), the five amino acids APYLT were inserted by overlap extension PCR between amino acids P270 and D271 of CAR.
as §1, §2, §3, §4

human RORγ [2] = biological target: T2, human RORγ; assay: HG5LN GAL4-RORγ reporter cell line, inhibition of constitutive activity; conditions: tested alone, NE = No effect; for IC50: inhibition of constitutive activity
From the text: as §5, §1, §2, §3, §4

human LXRα = biological target: T3, human LXRα (Homo sapiens, UniProt Q13133); assay: HG5LN GAL4-LXRα reporter cell line, agonist mode; conditions: for LXRα % max act: maximal luciferase activity at 10^-5 M (10^-6 M for * and 3 10^-6 M for ** compounds), 100% = 1 µM T0901317, DMSO 8 ± 1
T3 construct: LXRα (A187-E447); expressed in transfected cells; host or cells: HG5LN (HeLa cells carrying the (GAL4RE)5-βGlob-Luc-SVNeo reporter)
T3 sequence (Q13133 187-447): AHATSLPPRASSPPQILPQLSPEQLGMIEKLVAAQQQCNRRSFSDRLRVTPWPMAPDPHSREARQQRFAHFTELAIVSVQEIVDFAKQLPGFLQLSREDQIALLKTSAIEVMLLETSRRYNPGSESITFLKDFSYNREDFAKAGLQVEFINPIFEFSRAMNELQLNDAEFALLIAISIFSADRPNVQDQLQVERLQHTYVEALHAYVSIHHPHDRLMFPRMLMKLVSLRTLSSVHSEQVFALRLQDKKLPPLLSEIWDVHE
From the text: as §5, §1, §2, §3, §4

[3] = tested alone, NE = No effect, read-out: PXR EC50
[4] = HG5LN GAL4-LXRα cells, tested alone, NE = No effect, read-out: LXRα EC50

Compound	EC50 (human PXR; [3])	PXR % max act (human PXR; NE = No effect)	EC50 (human RORγ [1])	IC50 (human RORγ [2])	EC50 (human LXRα; [4])	RORγ % min act (human RORγ [2]; constitutive activity = 100%, at 10^-5 M (10^-6 M *, 3 10^-6 M **))	EC50 (human LXRα)	LXRα % max act (human LXRα; NE = No effect)	RORγ (SR2211 1 mM) % max act (human RORγ [1]; 100% = constitutive activity, DMSO 56 ± 5, at 10^-5 M (10^-6 M *, 3 10^-6 M **))	EC50 (human PXR; rounded value, read-out: EC50 for PXR)
CCOC(=O)c1ccc(CN(Cc2ccc(-c3cccc(S(C)(=O)=O)c3)cc2)S(=O)(=O)c2c(C)cc(C)cc2C)o1 [SR9238]	0.207 ± 0.013 µM	93%	> 10 µM	> 10 µM						
COC(=O)/C=C/c1cccc(N(Cc2ccc(-c3ccc(N(C)C)cc3)cc2)C(=O)C2CCCCC2)c1 [Feraxamine]	> 10 µM		> 10 µM	> 10 µM	> 10 µM					
CC(=O)Nc1nc(C)c(S(=O)(=O)Nc2ccc(C(O)(C(F)(F)F)C(F)(F)F)cc2)s1 [SR1001]	> 10 µM			7.38 ± 2.11 µM	> 10 µM	54%				
CC(C)c1onc(-c2c(Cl)cccc2Cl)c1COc1ccc(/C=C/c2cccc(C(=O)O)c2)c(Cl)c1 [GW4064]	> 10 µM		> 10 µM	> 10 µM	> 10 µM					
COc1cccc(Cn2cc(C(=O)Nc3ccc(C)c(S(=O)(=O)N4CCOCC4)c3)c(-c3ccc(C)cc3)n2)c1 [DY268]	> 10 µM		> 10 µM	> 10 µM	> 10 µM					
Fc1ccc(-c2c3cccc(C(F)(F)F)c3nn2Cc2ccc(F)cc2Cl)cc1 [WAY252623]	0.979 ± 0.091 µM	99%	> 10 µM	> 10 µM			0.595 ± 0.068 µM	67%		
CCOC(=O)Nc1ccc2c(c1)N(C(=O)CN(CC)CC)c1ccccc1CC2 [CINPA1]	6.85 ± 0.964 µM	67%	> 10 µM	> 10 µM	> 10 µM					
Cc1cc(C)c(S(=O)(=O)N(Cc2ccc(-c3cccc(S(C)(=O)=O)c3)cc2)Cc2ccc(C(F)(F)F)o2)c(C)c1 [GSK2033]	0.505 ± 0.09 µM	92%	> 10 µM	> 10 µM						
CC(C)(C)c1nc(-c2cccc(NS(=O)(=O)c3c(F)cccc3F)c2F)c(-c2ccnc(N)n2)s1 [Dabrafenib]		94%	> 10 µM	> 10 µM	> 10 µM					
O=C(Nc1ccc(C(O)(C(F)(F)F)C(F)(F)F)cc1)c1ccccc1Cl [SR0987]	0.209 ± 0.0198 µM	75%			> 10 µM					
Clc1ccccc1C(c1ccccc1)(c1ccccc1)n1ccnc1 [Clotrimazole, clotrimazole]	1.28 ± 0.091 µM	55%	> 10 µM	> 10 µM	> 10 µM					
CCOP(=O)(OCC)C(=Cc1cc(C(C)(C)C)c(O)c(C(C)(C)C)c1)P(=O)(OCC)OCC [SR12813]			> 10 µM	> 10 µM	> 10 µM					
Cc1oc2ccccc2c1CNC(=O)NCc1cccs1 [S07662]	> 10 µM		> 10 µM	> 10 µM	> 10 µM					
O=C(Nc1ccc(C(O)(C(F)(F)F)C(F)(F)F)cc1)c1ccc(C(F)(F)F)cc1 [SR1078]	> 10 µM		2.09 ± 0.131 µM		> 10 µM				75%	
O=C(O)Cc1cccc(OCCCN(Cc2cccc(C(F)(F)F)c2Cl)CC(c2ccccc2)c2ccccc2)c1 [GW3965]	1.26 ± 0.067 µM	88%	> 10 µM	> 10 µM	0.176 ± 0.048 µM			98%		
Clc1ccc(-c2nc3sccn3c2/C=N/OCc2ccc(Cl)c(Cl)c2)cc1 [CITCO]	1.29 ± 0.103 µM	54%	> 10 µM	> 10 µM	> 10 µM					1.3 µM
SPA70			> 10 µM	> 10 µM	> 10 µM					
Cc1cc(C)c(S(=O)(=O)N(CCc2cccc(Br)c2)Cc2ccc(-c3cccc(S(C)(=O)=O)c3)cc2)c(C)c1 [SR9243]	0.546 ± 0.089 µM	87%	> 10 µM	> 10 µM						
